Assays:
[1] = biological target: T1, intact retromer complex (Homo sapiens, UniProt Q96QK1+Q9UBQ0); experiment: fluorescence thermal stability assay with reconstituted retromer; type: binding
T1 construct: made in house
From the text: We set out to screen and identify compounds that stabilized the active retromer complex, thereby preventing VPS35 degradation and increasing the steady-state level of the complex, which may reduce toxic Abeta. To cast our net wider, we set out to perform virtual screening by docking first, and we were able to do that because crystal structures of several retromer components and, more importantly, the VPS35-VPS29 binary complex, had been published. […] After two years of trial and error in overcoming technical obstacles, we finally succeeded in expressing and purifying each of the individual retromer components separately, and then reconstituting the complete complex in vitro.
We then obtained tested, in a real fluorescence stability assay using our reconstituted retromer, a total of about 50 compounds from our list of the 200 “top hits” in the docking run. It should be noted that there are a total of 7 sites that were identified from the computational surface mapping approach, and we considered anything with a G-score below −7.00 to be in the “top hits”. Four of the sites contained almost all the top hits, so compounds were actually assayed only if they were in the top 200 by G-score and were predicted to bind well to one of these four sites.

[2] = system: animal models for cancer; settings: three different animal models for cancer; cited from earlier work
[3] = system: mice; settings: up to 30 mg/kg; cited from earlier work

Question: Which “hit in actual experimental assays” value ([1]; compounds from top docking hits of site 2 (VPS35-VPS29 interface)) does the source give for N=C(N)SCc1ccc(CSC(=N)N)s1 [compound 55712, [5-(carbamimidoylsulfanylmethyl)thiophen-2-yl]methyl carbamimidothioate] here?
Answer: positive hits

Question: And the “stabilization of the intact retromer complex (thermal stability)” value ([1]; increase in thermal stability, reconstituted retromer, FIG. 1)?
Answer: 10 degrees Celsius

Question: And the antitumor activity [2]?
Answer: no antitumor activity

Question: And the toxicity to mice [3]?
Answer: not toxic

From US20150361063A1, “TREATMENT OF AMYLOIDOSIS BY COMPOUNDS THAT REGULATE RETROMER STABILIZATION” (Brandeis University, priority 2011, published 2015)
